The results in this text go back to patent publication US7186743B2, “Substituted pyrazolyl compounds for the treatment of inflammation” (Pharmacia Corporation, priority 2001, dated 2007).

In general, IC50 refers to the point on the concentration scale where inhibition reaches its midpoint. Usually melting point stands for the temperature, or range, at which the solid turns liquid.

The structures appear in SMILES notation. Where a name gives a salt, the structure may show the parent alone. Read-outs that look alike come from different tables or passages of the source.

The target of one series is T1, IKK2 (Homo sapiens, UniProt O14920).
T1 construct: made in house; host or cells: insect cells (baculovirus, pFastBac; SF9)
T1 sequence (O14920 1-756): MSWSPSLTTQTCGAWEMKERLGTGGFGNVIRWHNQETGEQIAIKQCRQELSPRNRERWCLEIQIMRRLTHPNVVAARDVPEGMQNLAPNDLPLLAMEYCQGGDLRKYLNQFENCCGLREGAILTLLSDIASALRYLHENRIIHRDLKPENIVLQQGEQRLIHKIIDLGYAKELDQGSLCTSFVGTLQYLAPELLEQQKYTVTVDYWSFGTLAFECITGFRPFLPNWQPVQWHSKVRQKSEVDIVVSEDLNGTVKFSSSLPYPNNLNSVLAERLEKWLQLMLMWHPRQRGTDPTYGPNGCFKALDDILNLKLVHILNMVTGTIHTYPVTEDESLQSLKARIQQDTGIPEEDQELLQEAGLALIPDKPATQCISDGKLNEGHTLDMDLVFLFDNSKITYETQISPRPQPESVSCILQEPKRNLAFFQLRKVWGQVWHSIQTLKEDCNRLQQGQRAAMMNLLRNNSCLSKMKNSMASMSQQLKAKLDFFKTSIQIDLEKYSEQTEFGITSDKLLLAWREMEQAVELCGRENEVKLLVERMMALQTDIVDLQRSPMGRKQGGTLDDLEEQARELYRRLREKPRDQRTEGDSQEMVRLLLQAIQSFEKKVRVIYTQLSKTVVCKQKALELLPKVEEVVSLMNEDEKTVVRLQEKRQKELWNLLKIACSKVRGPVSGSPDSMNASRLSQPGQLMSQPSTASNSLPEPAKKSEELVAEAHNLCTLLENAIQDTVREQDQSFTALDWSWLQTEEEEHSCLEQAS
The series can be described thus: IKKβ Resin Enzyme Assay (IKK2 resin). The class given is biochemical. A digest of the protocol:
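Radiometric test: [γ-33P]ATP incorporation into a biotinylated IκBα peptide, 30 min at 25° C, pH 7.6 Hepes with MgCl2/MnCl2 and 1 μM cold ATP. Reaction is quenched with Dowex resin and the supernatant is counted. Kinase is FLAG-purified homodimeric recombinant human IKK2 from insect cells.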

Setting [1] is: Table 5, read-out: IKK2 Resin Avg. IC50.
[2] abbreviates: Table 7, read-out: IKK2 Resin IC50.

As for `CNc1ccc(Cl)c(C(=O)Nc2ccc3c(c2)-c2c(c(C(N)=O)nn2-c2ccc4c(c2)OCO4)CC3)n1` [Example 220, 1-(1,3-benzodioxol-5-yl)-8-({[3-chloro-6-(methylamino)pyridin-2-yl]carbonyl}amino)-4,5-dihydro-1H-benzo[g]indazole-3-carboxamide], the melting point was 269 to 270 °C (dec.). Besides, the IC50 at IKK2 (setting [1]) is not above 1000 nM.

`CN1CCN(c2ccc(Cl)c(C(=O)Nc3ccc4c(c3)-c3c(c(C(N)=O)nn3-c3ccc(F)cc3)CC4)n2)CC1` (as salt: salt) [Example 256, 8-({[3-chloro-6-(4-methylpiperazin-1-yl)pyridin-2-yl]carbonyl}amino)-1-(4-fluorophenyl)-4,5-dihydro-1H-benzo[g]indazole-3-carboxamide]: the melting point was in the range of 218 to 220 °C.

In turn, `CN1CCN(c2cc(C(=O)Nc3ccc4c(c3)-c3c(c(C(N)=O)nn3-c3ccc(F)cc3)CC4)ccn2)CC1` [Example 251, 1-(4-fluorophenyl)-8-{[2-(4-methylpiperazin-1-yl)isonicotinoyl]amino}-4,5-dihydro-1H-benzo[g]indazole-3-carboxamide] showed a melting point of 277 to 279 °C. Further, the IC50 on IKK2 (setting [2]) was not above 1000 nM.

`NC(=O)c1nn(-c2ccc(F)cc2)c2c1CCc1ccc(NC(=O)c3cc(N4CCOCC4)ncc3Cl)cc1-2` [Example 249, 8-[(5-chloro-2-morpholin-4-ylisonicotinoyl)amino]-1-(4-fluorophenyl)-4,5-dihydro-1H-benzo[g]indazole-3-carboxamide]: the melting point was 309 to 313 °C. Moreover, the 50% inhibitory concentration (IC50) on IKK2 (setting [2]) is not above 1000 nM.

For the compound `NC(=O)c1nn(-c2ccc3c(c2)OCO3)c2c1CCc1ccc(NC(=O)c3nc(N4CCOCC4)ccc3Cl)cc1-2` [Example 219, 1-(1,3-benzodioxol-5-yl)-8-{[(3-chloro-6-morpholin-4-ylpyridin-2-yl)carbonyl]amino}-4,5-dihydro-1H-benzo[g]indazole-3-carboxamide], the melting point is 260 to 262 °C (dec.). The IC50 on IKK2 (setting [1]) was not above 1000 nM.

As for `Cc1cc(N2CCOCC2)ncc1C(=O)Nc1ccc2c(c1)-c1c(c(C(N)=O)nn1-c1ccc(F)cc1)CC2` [Example 247, 1-(4-fluorophenyl)-8-{[(4-methyl-6-morpholin-4-ylpyridin-3-yl)carbonyl]amino}-4,5-dihydro-1H-benzo[g]indazole-3-carboxamide], the melting point is 301 °C (dec.). In addition, on IKK2 (setting [2]), the IC50 is not above 1000 nM.

Consider `COc1ccc(CNc2ncccc2C(=O)Nc2ccc3c(c2)-c2c(c(C(N)=O)nn2-c2ccc4c(c2)OCO4)CC3)cc1` [Example 209, 1-(1,3-benzodioxol-5-yl)-8-[({2-[(4-methoxybenzyl)amino]pyridin-3-yl}carbonyl)amino]-4,5-dihydro-1H-benzo[g]indazole-3-carboxamide], for which the melting point lay in the range of 181 to 182 °C.

`NC(=O)c1nn(-c2ccc3c(c2)OCO3)c2c1CCc1ccc(NC(=O)c3cccnc3NCCO)cc1-2` [Example 208, 1-(1,3-benzodioxol-5-yl)-8-[({2-[(2-hydroxyethyl)amino]pyridin-3-yl}carbonyl)amino]-4,5-dihydro-1H-benzo[g]indazole-3-carboxamide] displayed a melting point of 250 to 253 °C. Moreover, the IC50 on IKK2 (setting [1]) is not above 1000 nM.

For the compound `CNc1ncccc1C(=O)Nc1ccc2c(c1)-c1c(c(C(N)=O)nn1-c1ccc3c(c1)OCO3)CC2` [Example 207, 1-(1,3-benzodioxol-5-yl)-8-({[2-(methylamino)pyridin-3-yl]carbonyl}amino)-4,5-dihydro-1H-benzo[g]indazole-3-carboxamide], the melting point was 273 to 275 °C. In addition, the half-maximal inhibitory concentration (IC50) at IKK2 (setting [1]) is not above 1000 nM.

The compound `NC(=O)c1nn(-c2ccc3c(c2)OCO3)c2c1CCc1ccc(NC(=O)c3cc(N4CCOCC4)ncc3Cl)cc1-2` [Example 212, 1-(1,3-benzodioxol-5-yl)-8-[(5-chloro-2-morpholin-4-ylisonicotinoyl)amino]-4,5-dihydro-1H-benzo[g]indazole-3-carboxamide] gave a melting point of 269 to 271 °C. Further, the half-inhibitory concentration (IC50) at IKK2 (setting [1]) was not above 1000 nM.

Compound `NC(=O)c1nn(-c2ccc3c(c2)OCO3)c2c1CCc1ccc(NC(=O)c3cc(Cl)ncc3Cl)cc1-2` [Example 211, 1-(1,3-benzodioxol-5-yl)-8-[(2,5-dichloroisonicotinoyl)amino]-4,5-dihydro-1H-benzo[g]indazole-3-carboxamide] yielded a melting point of 292 to 293 °C.

The compound `NC(=O)c1nn(-c2ccc(F)cc2)c2c1CCc1ccc(NC(=O)c3cccnc3N3CCNCC3)cc1-2` [Example 245, 1-(4-fluorophenyl)-8-{[(2-piperazin-1-ylpyridin-3-yl)carbonyl]amino}-4,5-dihydro-1H-benzo[g]indazole-3-carboxamide] showed a melting point of 156 to 157 °C. At IKK2 (setting [2]), the IC50 is not above 1000 nM.

`CN1CCN(c2cc(C(=O)Nc3ccc4c(c3)-c3c(c(C(N)=O)nn3-c3ccc5c(c3)OCO5)CC4)c(Cl)cn2)CC1` [Example 214, 1-(1,3-benzodioxol-5-yl)-8-{[5-chloro-2-(4-methylpiperazin-1-yl)isonicotinoyl]amino}-4,5-dihydro-1H-benzo[g]indazole-3-carboxamide] came in with a melting point of 305 to 307 °C.

Turning to `NC(=O)c1nn(-c2ccc3c(c2)OCO3)c2c1CCc1ccc(NC(=O)c3nc(Cl)ccc3Cl)cc1-2` [Example 216, 1-(1,3-benzodioxol-5-yl)-8-{[(3,6-dichloropyridin-2-yl)carbonyl]amino}-4,5-dihydro-1H-benzo[g]indazole-3-carboxamide], the melting point fell in the range of 263 to 265 °C.

For `NC(=O)c1nn(-c2ccc(F)cc2)c2c1CCc1ccc(NC(=O)c3nc(N4CCOCC4)ccc3Cl)cc1-2` [Example 255, 8-{[(3-chloro-6-morpholin-4-ylpyridin-2-yl)carbonyl]amino}-1-(4-fluorophenyl)-4,5-dihydro-1H-benzo[g]indazole-3-carboxamide], the melting point is 252 to 254 °C. In addition, the IC50 on IKK2 (setting [2]) was not above 1000 nM.

For `CN1CCN(c2ccc(Cl)c(C(=O)Nc3ccc4c(c3)-c3c(c(C(N)=O)nn3-c3ccc5c(c3)OCO5)CC4)n2)CC1` (as salt: salt) [Example 217, 1-(1,3-benzodioxol-5-yl)-8-({[3-chloro-6-(4-methylpiperazin-1-yl)pyridin-2-yl]carbonyl}amino)-4,5-dihydro-1H-benzo[g]indazole-3-carboxamide], the melting point was 264 to 266 °C (dec.).

`Cc1cc(Cl)ncc1C(=O)Nc1ccc2c(c1)-c1c(c(C(N)=O)nn1-c1ccc(F)cc1)CC2` [Example 246, 8-{[(6-chloro-4-methylpyridin-3-yl)carbonyl]amino}-1-(4-fluorophenyl)-4,5-dihydro-1H-benzo[g]indazole-3-carboxamide] yielded a melting point of 280 to 284 °C. Besides, the 50% inhibitory concentration (IC50) on IKK2 (setting [2]) is not above 1000 nM.

As to `NC(=O)c1nn(-c2ccc3c(c2)OCO3)c2c1CCc1ccc(NC(=O)c3cccnc3Cl)cc1-2` [Example 161, 1-(1,3-benzodioxol-5-yl)-8-{[(2-chloropyridin-3-yl)carbonyl]amino}-4,5-dihydro-1H-benzo[g]indazole-3-carboxamide], the melting point fell in the range of 165 to 166 °C. For the same compound, at IKK2 (Table 4, read-out: IKK2 Resin IC50), the IC50 is not above 1000 nM.
